Laboratory results published in patent publication US10653693B2, “PRMT5 inhibitors and uses thereof” (Epizyme, Inc., priority 2014, dated 2020).
Like-named read-outs stand apart in the source and are kept apart here.

How the values were obtained:
Maver-1 xenograft model = test: 21 day mantle cell lymphoma xenograft study: TGI and tumor methyl mark; type: in vivo; conditions: all doses tested, day 21
Procedure: Data presented in this example were determined after analysis of 21 day samples of mantle cell lymphoma tumors. Cmin PK samples were taken prior to the last dose on day 21. Tumors were excised, weighed and processed for methyl mark. Methyl mark reduction was measured in tumor samples and is shown as percent of vehicle control (POC). Both SYM11 and sDMA Elisa were used to measure methyl mark and the data shown is averaged from 10 animals. Tumor growth inhibition was determined using tumor volume reduction at day 21 expressed as a percent of POC. In vivo inhibition curves were also generated and IC50 values determined. Plasma levels from each group are averaged from 5 animals. […] The average body weight loss (BWL) in all groups was <6%. All doses tested show >50% TGI. […] The average BWL in all groups was <4%. The average BWL in all groups was <8%, except in the 100 mg/kg does group were 4 animals exceeded BWL of 15%.

Jeko-1 = test: Long-term proliferation (LTP) assay; type: cell-based; conditions: Homo sapiens
[1] = system: sDMA methylation in bone marrow (surrogate tissue); test: sDMA Western blot of bone marrow samples from Z-138 efficacy study; type: in vivo; conditions: bone marrow harvested on day 21
Mino cells = test: Gene expression of apoptotic response genes (real time PCR); type: cell-based, Human; conditions: day 4
Procedure: (§1) The fold change was calculated using the Comparative Ct method ([…]). N=1. A previous RNA Seq study in MCL cell lines using a tool compound with the same cellular potency as Formula B identified expression changes in a number of genes involved in the apoptotic response (unpublished results). These genes included the Bcl-2 family members PUMA and BAX, well characterized drivers of the apoptotic response. Other genes implicated in the apoptotic response were also identified and include PHLDA3, TP53I3, p21, APOBEC3H, TRIM22, and FAS.

Jeko-1 cells = test: as above; type: cell-based, Human; conditions: day 4
Procedure: as §1

Granta-519 = test: as above; type: cell-based, Human; conditions: day 4
Procedure: as §1

Mino = test: Long-term proliferation (LTP) assay; type: cell-based; conditions: Homo sapiens
Z138 cells = test: Western analysis (sDMA, cleaved Caspase-3, cleaved PARP); type: cell-based, Human; conditions: 1 μM, 1-5 days
Procedure: Z138 cells were seeded at approximately […] in IMDM+10% horse serum media. Cells were treated with 1 μM of compound for 1, 2, 3, 4, or 5 days. Cell pellets were collected by centrifuging at 500×g for 5 minutes, washing once with PBS, and freezing at −80° C. until ready to be processed.
Protein lysates were prepared by adding RIPA buffer (Sigma R0278) containing protease inhibitor (about 5× the volume of the cell pellet, or roughly 250 μL) to each cell pellet and pipetting to resuspend. Samples were sonicated with 10×1 second pulses then centrifuged at maximum speed (13,300 RPM) for 6 minutes. Supernatant (200 μL) was transferred to a fresh Eppendorf tube, and pellets were discarded. Protein concentration was determined using a Pierce BCA Protein Assay kit.
Protein gel samples were prepared by combining 20 μg of lysate with appropriate volumes of Life Technologies NuPage Sample Reducing Agent, LDS Sample Buffer, and RIPA buffer. Gel samples were heated for 5-10 minutes at 100° C. in a heat block. A 15-well Invitrogen 4-12% Bis-Tris NuPAGE-SDS gel was loaded with a volume of 19 μL per well, and run in MES SDS buffer at 150V for about 1 hour or until maximal separation of bands was achieved.
Gels were transferred onto nitrocellulose membranes using an Invitrogen iBlot system. […]

[2] = system: heme cancer cell lines (MCL, AML, MM, lymphoma); test: Cell Titer-Glo growth/death assay; type: cell-based; conditions: several heme cancer cell lines incl. MCL, MM and lymphoma
Procedure: Heme cancer cells were treated with a PRMT5 inhibitor and a Cell Titer-Glo growth/death assay was performed.

Z138 = test: Cell cycle analysis (propidium iodide staining, FACS); type: cell-based, Human; conditions: 3 days
Procedure: Cells were seeded in 6-well tissue culture dishes in a volume of 3 mL IMDM+10% horse serum (supplemented with 0.5 μg/mL puromycin for transduced cell lines). Cells were treated with DMSO, 10 nM Formula C, or 200 nM Formula C for 3 days. Cells were harvested by centrifuging at 2,000 RPM for 5 minutes, washing with PBS, washing with citrate buffer, then aspirating excess citrate buffer to leave approximately 50 μL remaining above pellet. Pellets were frozen at −80° C. until ready to process.
Pellets were propidium iodide-stained for FACS using the Becton Dickinson CycleTEST PLUS kit (cat. #340242). Solutions A, B, and C of the kit were thawed and then kept on ice. Cell pellets were thawed rapidly at 37° C. and pipetted up and down to resuspend in 50 μL of citrate buffer.
Approximately one quarter of the cell pellet volume was transferred to a fresh Eppendorf tube. 250 μL of solution A was added to each sample and then inverted 7 to 10 times. Samples were placed on a shaker at 150 RPM for 10 minutes at room temperature. Samples were on ice when not shaking. 250 μL of solution B and 250 μL of solution C were added to each sample in the same fashion. […]
Samples were processed by FACS on a Becton Dickinson FACSCalibur machine. The percentage of cells in each cell cycle stage was determined using the cell cycle function on the gated single cell population with FlowJo V10 software.

[3] = 264 h, 11-day treatment, N = 1, read-out: Formula B LTP IC50
[4] = 264 h, 11-day treatment, N = 1, read-out: Formula B LTP IC90

Row | SMILES | Tumor growth inhibition (TGI) (Maver-1 xenograft model) [%] | IC50 (Jeko-1; [3]) [nM] | IC90 (Jeko-1; [4]) [nM] | IC50 (Jeko-1; Table 3, read-out: LTP IC50) [nM] | levels of sDMA methylation in bone marrow [1] | effects in any of the genes tested (Mino cells) | effects in any of the genes tested (Jeko-1 cells) | gene expression for p21, TRIM22, and FAS (Granta-519) | increase in the gene PHLDA3 (Granta-519) [fold] | IC50 (Mino; [3]) [nM] | IC90 (Mino; [4]) [nM] | IC50 (Mino; Table 3, read-out: LTP IC50) [nM] | cell death pathways (cleaved Caspase-3 and cleaved PARP) by Western (Z138 cells) | inhibition of PRMT5 (sDMA, symmetric dimethylarginine) by Western (Z138 cells) | proliferation in heme cancer cell lines [2] | cell cycle effect (Z138; 10 nM) | cell cycle effect (Z138; 200 nM)
1 | CC(=O)N1CCC(Nc2cc(C(=O)NC[C@H](O)CN3CCc4ccccc4C3)ccn2)CC1 [Formula B] | > 50 | 14 | 149 | 5.2 | More of a dose-dependent response | did not show any significant effects | did not show any significant effects | only modest increases | ≤ 10 | 119 | 611 | 64.6 | – | – | – | – | –
2 | O=C(NC[C@H](O)CN1CCc2ccccc2C1)c1ccnc(NC2CCC2)c1 [Formula C] | – | – | – | – | – | – | – | – | – | – | – | – | induction of cell death pathways | time-dependent inhibition | inhibits proliferation | G1 arrest | cell death
